Patent publication US20260364184A1, “COMPOUND BASED ON OXOISOINDOLINYL-SUBSTITUTED TETRAHYDROPYRIMIDINE-DIONE AND USE THEREOF” (GLUETACS THERAPEUTICS (SHANGHAI) CO., LTD., priority 2023, published 2026)

Tests used:
[1] = tested on: Human malignant melanoma cell line (A375); test: Inhibition of A375 cell proliferation (CellTiter luminescent viability); conditions: A-375, Table III (II1), EZH2 inhibitor-based, 96 hours; for inhibition at 0.01 µM: A375, 10 nM, read-out: Inhibition Rate at 10 nM (%); for inhibition at 0.5 µM: A375, 500 nM, read-out: Inhibition Rate at 500 nM (%)
Method: (§1) The tumor cells used herein were cultured in a cell culture medium listed in table 3 at 37 °C in an incubator with 5% CO2. Prior to experimentation, all cell lines used were correctly identified by STR profiling, and tested negative for mycoplasma contamination using a mycoplasma detection kit through routine screenings.
(§2) The IC50 values of the compounds of the present disclosure (including the compounds in Table 1, Table 2, and Examples 1-468) were determined using the CellTiter-Meiluncell Luminescent Cell Viability Assay Kit from Dalian Meilun Biotech Co., Ltd. The detailed procedure is as follows: Tumor cells were seeded in 96-well cell culture plates at the densities specified in Table 4. On the following day, the test compounds of the present disclosure were subjected to serial dilution. The dilution can be performed according to one of the following two methods: • (1) The first dilution method: The test compounds of the present disclosure (including the compounds in Table 1, Table 2, and Examples 1-468) were subjected to 5-fold serial dilutions starting from a highest concentration of 2000 μM, resulting in a total of 9 concentrations from high to low (2000, 400, 80, 16, 3.2, 0.64, 0.128, 0.0256, 0.00512 μM). Subsequently, 0.5 μL of the test compound dilution was transferred into the 96-well plate containing the cells, with each well containing 100 μL of cell culture medium. […] Into the 96-well plate, the diluted test compounds and corresponding detection reagents were added, resulting in final test compound concentrations of 500 nM and 10 nM, respectively. The experimental procedure is described below using the diluted 2 μM test compound as an example.
(§3) 0.5 μL of the aforementioned diluted compound of the present disclosure (including the compounds in Table 1, Table 2, and Examples 1-468) was added to the seeded cells in 100 μL of medium, yielding a final test compound concentration of 10 nM. After the cells were treated with the compounds of the present disclosure for a specified period, the cell viability assay reagent was added to the culture medium according to the kit's instructions to determine cell viability. […] All controls were treated using the same procedure as the compounds of the present disclosure. The growth inhibition curves for the compounds of the present disclosure were plotted using Prism GraphPad software, and the IC50 values were calculated therefrom.

[2] = tested on: Human neuroblastoma cell line (SK-N-AS); test: Inhibition of SK-N-AS cell proliferation (CellTiter luminescent viability); type: cell-based; conditions: Table II2, EZH2 inhibitor-based, 96 hours; for inhibition at 0.01 µM: 10 nM, read-out: Inhibition Rate at 10 nM (%); for inhibition at 0.5 µM: 500 nM, read-out: Inhibition Rate at 500 nM (%)
EZH2 = biological target: T1, EZH2 (Homo sapiens, UniProt Q15910+Q96SW2); test: Western blot degradation of EZH2; type: cell-based; conditions: hPBMC Cell; 24 hours
T1 construct: expression of target proteins in cells; endogenous in cells
Method: Conventional Western blot assay was performed to evaluate the effects of the compounds of the present disclosure on the expression of target proteins in cells.
(1) Cell Seeding and Protein Harvesting: The selected cells were processed according to the cell seeding procedure and protein harvesting procedure in Table II-2.
(2) To the collected supernatant, 5×SDS sample loading buffer was added, followed by denaturation at 95 °C for 5 minutes. The denatured samples were then separated by SDS-PAGE electrophoresis on a polyacrylamide gel. Proteins were transferred to a nitrocellulose membrane (0.45 μm NC membrane), blocked with blocking buffer at room temperature for 1 hour, and subjected to antibody incubation and development procedures according to the antibody manufacturer's instructions (Cell Signaling Technology).
Half-Maximal Degradation Concentration value (the drug concentration required for degrading proteins by 50%, abbreviated as DC50) reads method: comparing the grayscale values of Western blot bands from drug-treated samples with those from blank DMSO-treated controls, and identifying the drug concentration range at which the grayscale value is half that of the DMSO-treated control bands.
DC50 values can be calculated using ImageJ software to measure grayscale values of Western blot bands from drug-treated samples. The concentration-response curve is fitted to estimate the drug concentration corresponding to half the grayscale value.
Target protein remaining (%) refers to the percentage of target protein remaining in cells after treatment with protein degrader compounds.
Calculation method for target protein remaining (%): Use ImageJ software to measure grayscale values of Western blot bands from drug (protein degrader)-treated samples. The grayscale value of drug-treated bands is divided by that of internal control protein bands, and the resulting quotient is normalized to obtain the relative percentage of remaining target protein after protein degrader treatment.
Target protein degradation rate (%)=1−target protein remaining (%).

[3] = tested on: Human gastric cancer cell line MGC803; test: Inhibition of MGC803 tumor cell proliferation (CellTiter luminescent viability); type: cell-based; conditions: Table IA1, IRAK4 inhibitor-based compounds; MGC803, 96 hours; read-out: Inhibitory activity (IC50, nM) on tumor cell proliferation, MGC803
Method: as §1, §2, §3

[4] = tested on: Human T lymphocytic leukemia cell line (Jurkat); test: Inhibition of Jurkat cell proliferation (CellTiter luminescent viability); type: cell-based; conditions: Table IA1, IRAK4 inhibitor-based, 96 hours, read-out: Inhibitory activity (IC50, nM) on tumor cell proliferation, Jurkat
[5] = tested on: Human large cell immunoblastic lymphoma cell line SR; test: Inhibition of SR cell proliferation (CellTiter luminescent viability); type: cell-based; conditions: Table IA1, IRAK4 inhibitor-based, 96 hours, read-out: Inhibitory activity (IC50, nM) on tumor cell proliferation, SR
Procedure, shortened: (§4)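 Cells are seeded in 96-well plates, cultured at 37 °C, 5% CO2, and treated next day with 5-fold serial compound dilutions (stock series from 2000 μM; 0.5 μL into 100 μL medium). Viability is read by CellTiter-Meiluncell luminescence after the set exposure, and IC50 is taken from growth-inhibition curves.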

[6] = tested on: Human Multiple myeloma cell line (MM.1S); test: Inhibition of MM.1S cell proliferation (CellTiter luminescent viability); type: cell-based; conditions: Table IA1, IRAK4 inhibitor-based, 96 hours, read-out: Inhibitory activity (IC50, nM) on tumor cell proliferation, MM.1S
Procedure, shortened: as §4

JEKO-1 = test: Inhibition of JEKO-1 cell proliferation (CellTiter luminescent viability); type: cell-based, human; conditions: Table IA1, IRAK4 inhibitor-based; JEKO-1, 96 hours; read-out: Inhibitory activity (IC50, nM) on tumor cell proliferation, JEKO-1
Method: as §1, §2, §3

[7] = tested on: Human myeloid monocytic leukemia cell line (MV-4-11); test: Inhibition of MV-4-11 cell proliferation (CellTiter luminescent viability); type: cell-based; conditions: Homo sapiens, MV4-11, Table IA3, IRAK4 inhibitor-based, 96 hours
Procedure, shortened: as §4

[8] = Inhibition of RPMI-8226 cell proliferation (CellTiter luminescent viability); type: cell-based; conditions: Homo sapiens; Table IA4, IRAK4 inhibitor-based; RPMI-8226, 10 nM, 96 hours; read-out: Inhibition Rate at 10 nM (%)
[9] = tested on: Human B-Cell Lymphoma Cells (RPMI-8226); test: as above; type: cell-based; conditions: Table IA4, IRAK4 inhibitor-based, RPMI-8226, 500 nM, 96 hours, read-out: Inhibition Rate at 500 nM (%)
IRAK4 = biological target: T2, IRAK4 (Homo sapiens, UniProt Q9NWZ3); test: Western blot degradation of IRAK4; type: cell-based; conditions: hPBMC Cell; 24 hours
T2 construct: expression of target proteins in cells; endogenous in cells
T2 sequence (Q9NWZ3 1-460): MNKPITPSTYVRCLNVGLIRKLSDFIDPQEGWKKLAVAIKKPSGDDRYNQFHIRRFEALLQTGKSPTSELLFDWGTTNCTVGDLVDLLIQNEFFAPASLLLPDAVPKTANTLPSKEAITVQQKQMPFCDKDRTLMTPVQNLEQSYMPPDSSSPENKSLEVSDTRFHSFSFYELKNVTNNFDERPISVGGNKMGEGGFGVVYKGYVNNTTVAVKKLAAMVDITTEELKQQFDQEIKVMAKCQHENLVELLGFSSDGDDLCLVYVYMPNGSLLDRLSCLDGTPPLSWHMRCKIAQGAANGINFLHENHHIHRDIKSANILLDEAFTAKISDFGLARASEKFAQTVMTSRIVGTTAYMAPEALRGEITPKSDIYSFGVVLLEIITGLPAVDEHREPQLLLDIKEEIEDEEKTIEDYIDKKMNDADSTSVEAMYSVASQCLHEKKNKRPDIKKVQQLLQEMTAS
Procedure, shortened: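 Immunoblot of drug-treated versus DMSO-treated cell lysates, with densitometric quantification. Values: DC50 (50% band loss, fitted) and loading-control-normalised % remaining or degradation.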

T1 sequence (Q15910 whole entry): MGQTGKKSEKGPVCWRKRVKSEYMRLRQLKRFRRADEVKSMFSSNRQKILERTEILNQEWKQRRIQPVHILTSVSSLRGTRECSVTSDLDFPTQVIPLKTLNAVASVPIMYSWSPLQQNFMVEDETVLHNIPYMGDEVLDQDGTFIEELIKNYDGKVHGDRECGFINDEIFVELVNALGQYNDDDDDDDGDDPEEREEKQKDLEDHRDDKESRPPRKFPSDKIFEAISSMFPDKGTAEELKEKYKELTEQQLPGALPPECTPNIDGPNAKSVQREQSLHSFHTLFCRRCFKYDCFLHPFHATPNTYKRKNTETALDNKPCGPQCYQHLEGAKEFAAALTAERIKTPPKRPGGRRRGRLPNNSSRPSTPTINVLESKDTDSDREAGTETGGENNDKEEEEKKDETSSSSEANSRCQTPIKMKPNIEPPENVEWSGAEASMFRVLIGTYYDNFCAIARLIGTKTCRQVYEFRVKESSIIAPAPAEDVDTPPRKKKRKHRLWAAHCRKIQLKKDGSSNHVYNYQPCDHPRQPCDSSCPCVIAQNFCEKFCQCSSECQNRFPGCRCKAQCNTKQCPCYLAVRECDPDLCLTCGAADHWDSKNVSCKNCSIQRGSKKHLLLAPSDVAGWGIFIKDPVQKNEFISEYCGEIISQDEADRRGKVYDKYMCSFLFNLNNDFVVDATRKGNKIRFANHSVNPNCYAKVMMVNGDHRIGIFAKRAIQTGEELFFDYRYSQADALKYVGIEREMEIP
T1 sequence (O75530 whole entry partner): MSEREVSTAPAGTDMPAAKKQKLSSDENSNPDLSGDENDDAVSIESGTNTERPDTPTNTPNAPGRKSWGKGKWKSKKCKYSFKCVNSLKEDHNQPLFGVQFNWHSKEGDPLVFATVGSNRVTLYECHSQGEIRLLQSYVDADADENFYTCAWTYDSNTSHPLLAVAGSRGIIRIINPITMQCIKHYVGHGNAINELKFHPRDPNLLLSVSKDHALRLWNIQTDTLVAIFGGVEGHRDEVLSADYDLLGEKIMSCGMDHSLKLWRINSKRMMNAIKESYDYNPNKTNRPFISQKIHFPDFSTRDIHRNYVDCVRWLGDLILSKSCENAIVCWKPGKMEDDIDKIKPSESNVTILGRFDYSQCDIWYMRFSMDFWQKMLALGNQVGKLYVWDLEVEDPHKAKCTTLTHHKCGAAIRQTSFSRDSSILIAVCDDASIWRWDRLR
T1 sequence (Q15022 whole entry partner): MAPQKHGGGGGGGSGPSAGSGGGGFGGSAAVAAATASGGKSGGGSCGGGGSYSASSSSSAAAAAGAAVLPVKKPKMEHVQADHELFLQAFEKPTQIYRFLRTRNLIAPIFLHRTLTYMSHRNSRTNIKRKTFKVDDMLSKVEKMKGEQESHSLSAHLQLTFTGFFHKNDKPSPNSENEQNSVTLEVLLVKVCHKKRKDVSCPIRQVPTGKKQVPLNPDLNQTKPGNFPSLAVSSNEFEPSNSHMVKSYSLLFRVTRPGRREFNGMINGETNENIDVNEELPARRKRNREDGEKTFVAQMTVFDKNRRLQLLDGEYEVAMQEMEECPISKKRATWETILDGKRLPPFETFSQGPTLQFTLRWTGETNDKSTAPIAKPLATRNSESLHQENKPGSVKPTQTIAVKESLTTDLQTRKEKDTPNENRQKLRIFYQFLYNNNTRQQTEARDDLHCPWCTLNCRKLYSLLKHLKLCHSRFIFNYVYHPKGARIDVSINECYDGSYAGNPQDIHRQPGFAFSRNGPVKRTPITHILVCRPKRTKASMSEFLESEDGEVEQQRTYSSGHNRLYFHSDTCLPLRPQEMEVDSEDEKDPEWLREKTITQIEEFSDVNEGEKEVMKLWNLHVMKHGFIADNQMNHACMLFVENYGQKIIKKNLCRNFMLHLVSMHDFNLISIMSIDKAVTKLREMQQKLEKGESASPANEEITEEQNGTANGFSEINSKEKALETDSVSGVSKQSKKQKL
T1 sequence (Q96SW2 whole entry): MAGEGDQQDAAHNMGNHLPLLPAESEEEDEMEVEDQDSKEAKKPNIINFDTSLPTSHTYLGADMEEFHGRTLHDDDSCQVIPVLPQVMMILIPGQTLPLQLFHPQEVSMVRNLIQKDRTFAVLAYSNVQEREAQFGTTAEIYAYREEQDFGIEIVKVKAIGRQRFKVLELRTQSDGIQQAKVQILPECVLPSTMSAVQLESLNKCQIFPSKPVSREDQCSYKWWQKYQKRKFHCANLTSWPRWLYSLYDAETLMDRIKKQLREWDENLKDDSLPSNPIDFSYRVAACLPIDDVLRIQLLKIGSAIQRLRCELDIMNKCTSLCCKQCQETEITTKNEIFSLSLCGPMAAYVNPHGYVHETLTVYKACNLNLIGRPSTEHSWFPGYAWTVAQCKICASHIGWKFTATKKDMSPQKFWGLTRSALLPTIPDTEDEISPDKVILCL
T1 sequence (Q16531 whole entry partner): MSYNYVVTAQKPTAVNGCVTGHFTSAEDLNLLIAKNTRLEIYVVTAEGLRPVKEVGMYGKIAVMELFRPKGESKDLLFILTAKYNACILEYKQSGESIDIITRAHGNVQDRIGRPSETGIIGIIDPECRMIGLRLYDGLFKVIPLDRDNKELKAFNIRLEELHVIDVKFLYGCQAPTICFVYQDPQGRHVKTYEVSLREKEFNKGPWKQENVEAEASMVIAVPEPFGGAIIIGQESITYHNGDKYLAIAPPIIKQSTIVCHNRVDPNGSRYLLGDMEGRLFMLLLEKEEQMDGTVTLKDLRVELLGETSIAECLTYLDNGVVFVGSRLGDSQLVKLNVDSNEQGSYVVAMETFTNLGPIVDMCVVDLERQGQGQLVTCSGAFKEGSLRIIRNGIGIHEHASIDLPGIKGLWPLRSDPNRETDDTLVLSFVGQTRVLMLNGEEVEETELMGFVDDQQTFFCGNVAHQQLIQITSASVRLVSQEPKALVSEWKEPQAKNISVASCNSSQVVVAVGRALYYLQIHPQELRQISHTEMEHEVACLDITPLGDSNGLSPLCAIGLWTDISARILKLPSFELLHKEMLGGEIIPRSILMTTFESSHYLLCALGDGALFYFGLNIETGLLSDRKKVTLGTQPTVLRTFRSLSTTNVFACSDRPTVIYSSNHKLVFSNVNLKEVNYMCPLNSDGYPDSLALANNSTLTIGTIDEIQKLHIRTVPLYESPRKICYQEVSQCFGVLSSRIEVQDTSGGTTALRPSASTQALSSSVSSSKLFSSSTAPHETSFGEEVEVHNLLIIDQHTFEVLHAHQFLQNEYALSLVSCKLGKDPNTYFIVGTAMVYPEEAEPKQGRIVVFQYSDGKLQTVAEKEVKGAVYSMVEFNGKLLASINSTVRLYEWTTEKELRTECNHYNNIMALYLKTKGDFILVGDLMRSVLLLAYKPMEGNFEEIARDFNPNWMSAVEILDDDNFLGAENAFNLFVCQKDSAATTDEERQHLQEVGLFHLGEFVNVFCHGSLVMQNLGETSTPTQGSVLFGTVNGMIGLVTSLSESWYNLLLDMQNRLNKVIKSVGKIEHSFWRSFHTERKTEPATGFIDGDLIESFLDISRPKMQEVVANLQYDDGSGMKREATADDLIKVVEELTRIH

Row | Degradation of substrate protein EZH2 (substrate protein remaining %) (EZH2) | IC50 [3] [nM] | IC50 [4] [nM] | IC50 [5] [nM] | IC50 [6] [nM] | Degradation of substrate protein IRAK4 (substrate protein remaining %) (IRAK4) | Structure (SMILES) | inhibition at 0.01 µM [1] [%] | inhibition at 0.5 µM [1] [%] | inhibition at 0.01 µM [2] [%] | inhibition at 0.5 µM [2] [%] | IC50 (JEKO-1) [nM] | inhibition at 0.01 µM ([7]; MV-4-11, 10 nM, read-out: Inhibition Rate at 10 nM (%)) [%] | inhibition at 0.5 µM ([7]; MV-4-11, 500 nM, read-out: Inhibition Rate at 500 nM (%)) [%] | inhibition at 0.01 µM [8] [%] | inhibition at 0.5 µM [9] [%]
1 | A (0%≤substrate protein remaining %≤80%) |  |  |  |  |  | CCCc1cc(C)[nH]c(=O)c1CNC(=O)c1cc(-c2ccc(N3CCN(C4CCN(Cc5ccc6c(c5)C(=O)N(N5CCC(=O)NC5=O)C6=O)CC4)CC3)nc2)cc2c1cnn2C(C)C [GT-08423, 6-(6-(4-(1-((2-(2,4-dioxotetrahydropyrimidin-1(2H)-yl)-1,3-dioxoisoindolin-5-yl)methyl)piperidin-4-yl)piperazin-1-yl)pyridin-3-yl)-1-isopropyl-N-((6-methyl-2-oxo-4-propyl-1,2-dihydropyridin-3-yl)methyl)-1H-indazole-4-carboxamide] | 20 to 30 | 30 to 40 | 20 to 30 | 40 to 50 |  |  |  |  | 
2 |  | 5000 to 10000 | 5000 to 10000 | 1000 to 5000 | > 10000 |  | CC[C@@H]1[C@H](F)C(=O)N[C@@H]1COc1nccc2cc(C(N)=O)c(OC)cc12 [PF06650833, PF-06650833, reference compound] |  |  |  |  | 500 to 1000 | 20 to 36 | 20 to 36 | 0 to 5 | 10 to 15
3 |  | 500 to 1000 | 500 to 1000 | 100 to 300 | 100 to 300 |  | O=C1CCN(N2Cc3cc(CN4CCN(c5ccc6c(c5)nc(NC(=O)c5cccc(C(F)(F)F)c5)n6[C@H]5CC[C@@H](CO)CC5)CC4)ccc3C2=O)C(=O)N1 [GT-04949, N-(5-(4-((2-(2,4-dioxotetrahydropyrimidin-1(2H)-yl)-1-oxoisoindolin-5-yl)methyl)piperazin-1-yl)-1-((1s,4s)-4-(hydroxymethyl)cyclohexyl)-1H-benzo[d]imidazol-2-yl)-3-(trifluoromethyl)benzamide] |  |  |  |  | 100 to 300 |  |  |  | 
4 | A (0%≤substrate protein remaining %≤80%) |  |  |  |  |  | CCCc1cc(C)[nH]c(=O)c1CNC(=O)c1cc(-c2ccc(N3CCC(N(C)Cc4ccc5c(c4)C(=O)N(N4CCC(=O)NC4=O)C5=O)CC3)nc2)cc2c1cnn2C(C)C [GT-08421, 6-(6-(4-(((2-(2,4-dioxotetrahydropyrimidin-1(2H)-yl)-1,3-dioxoisoindolin-5-yl)methyl)(methyl)amino)piperidin-1-yl)pyridin-3-yl)-1-isopropyl-N-((6-methyl-2-oxo-4-propyl-1,2-dihydropyridin-3-yl)methyl)-1H-indazole-4-carboxamide] | 15 to 20 | 20 to 30 | 20 to 30 | 20 to 30 |  |  |  |  | 
5 |  | 500 to 1000 | 500 to 1000 | 500 to 1000 | 500 to 1000 | A (0%≤substrate protein remaining %≤80%) | O=C1CCN(N2Cc3cc(CN4CCC(N5CCN(c6ccc7c(c6)nc(NC(=O)c6cccc(C(F)(F)F)c6)n7[C@H]6CC[C@@H](CO)CC6)CC5)CC4)ccc3C2=O)C(=O)N1 [GT-05019, N-(5-(4-(1-((2-(2,4-dioxotetrahydropyrimidin-1(2H)-yl)-1-oxoisoindolin-5-yl)methyl)piperidin-4-yl)piperazin-1-yl)-1-((1s,4s)-4-(hydroxymethyl)cyclohexyl)-1H-benzo[d]imidazol-2-yl)-3-(trifluoromethyl)benzamide] |  |  |  |  | 500 to 1000 |  |  |  | 
6 | A (0%≤substrate protein remaining %≤80%) |  |  |  |  |  | CCN(c1cc(-c2ccc(N3CCN(Cc4ccc5c(c4)CN(N4CCC(=O)NC4=O)C5=O)CC3)cc2)cc(C(=O)NCc2c(C)cc(C)[nH]c2=O)c1C)C1CCOCC1 [GT-08510, N-((4,6-dimethyl-2-oxo-1,2-dihydropyridin-3-yl)methyl)-4′-(4-((2-(2,4-dioxotetrahydropyrimidin-1(2H)-yl)-1-oxoisoindolin-5-yl)methyl)piperazin-1-yl)-5-(ethyl(tetrahydro-2H-pyran-4-yl)amino)-4-methyl-[1,1′-biphenyl]-3-carboxamide] |  |  | 15 to 20 | 20 to 30 |  |  |  |  | 
